Experiments:
Format in all cases: biochemical
[1] = target: CDK4/CyclinD1 (Homo sapiens (Human), UniProt P11802); assay: CDK4/CyclinD1 kinase assay (Nanosyn, Caliper microfluidic); settings: Table 2; read-out: CDK4/CycD1 IC50
Procedure: (§1) Selected compounds disclosed herein were tested in CDK4/cyclinD1, CDK6/CycD3 CDK2/CycA and CDK2/cyclinE kinase assays by Nanosyn (Santa Clara, Calif.) to determine their inhibitory effect on these CDKs. The assays were performed using microfluidic kinase detection technology (Caliper Assay Platform). The compounds were tested in 12-point dose-response format in singlicate at Km for ATP. Phosphoacceptor substrate peptide concentration used was 1 μM for all assays and Staurosporine was used as the reference compound for all assays. Specifics of each assay are as described below:
CDK4/CyclinD1: Enzyme concentration: 1 nM; ATP concentration: 200 μM; Incubation time: 10 hr.

[2] = target: CDK2/CyclinE (Homo sapiens (Human), UniProt P24941); assay: CDK2/CyclinE kinase assay (Nanosyn, Caliper microfluidic); settings: Table 2; for IC50: read-out: CDK2/CycE IC50
Procedure: as §1, with “assays.” for “assays. Specifics of each assay are as described below:”

[3] = target: CDK2/CyclinA (Homo sapiens (Human), UniProt P24941); assay: CDK2/CyclinA kinase assay (Nanosyn, Caliper microfluidic); settings: Table 2; for IC50: read-out: CDK2/CycA IC50
Procedure: as §1
CDK2/CyclinA: Enzyme concentration: 0.2 nM; ATP concentration: 50 μM; Incubation time: 3 hr.

Chain of CDK4/CyclinD1 (P11802 whole entry, species assumed): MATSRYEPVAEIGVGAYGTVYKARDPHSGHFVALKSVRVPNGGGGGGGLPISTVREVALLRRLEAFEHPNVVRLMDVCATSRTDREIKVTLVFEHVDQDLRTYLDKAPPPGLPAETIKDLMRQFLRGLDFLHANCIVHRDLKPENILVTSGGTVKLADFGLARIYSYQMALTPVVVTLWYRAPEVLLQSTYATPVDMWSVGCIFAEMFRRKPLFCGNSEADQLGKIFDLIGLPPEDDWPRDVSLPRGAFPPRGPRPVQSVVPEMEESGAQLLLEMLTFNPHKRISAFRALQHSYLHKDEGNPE
Chain of CDK4/CyclinD1 (P24385 whole entry partner, species assumed): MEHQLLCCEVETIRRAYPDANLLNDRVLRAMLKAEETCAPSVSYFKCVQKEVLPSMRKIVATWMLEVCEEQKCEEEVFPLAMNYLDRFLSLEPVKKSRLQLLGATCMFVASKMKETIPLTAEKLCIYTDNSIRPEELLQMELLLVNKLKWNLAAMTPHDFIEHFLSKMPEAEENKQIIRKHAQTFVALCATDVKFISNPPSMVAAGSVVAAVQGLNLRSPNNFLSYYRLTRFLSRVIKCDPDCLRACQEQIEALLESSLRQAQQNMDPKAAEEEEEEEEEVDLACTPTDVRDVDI

| SMILES | IC50 [1] [nM] | Fold Selectivity (CDK2/CycE/CDK4) [2] | IC50 [2] [nM] | Fold Selectivity (CDK2/CycA/CDK4) [3] | IC50 [3] [nM] |
| --- | --- | --- | --- | --- | --- |
| O=C1NCC2(CCCCC2)n2c1cc1cnc(Nc3ccc(C(=O)N4CCNCC4)cn3)nc12 [Y] | 2.5 | 50 | 124 | 25 | 61 |
| CN1CCN(c2ccc(Nc3ncc4cc5n(c4n3)C3(CCCC3)CNC5=O)nc2)CC1 [ZZ] | 10.5 | 949 | 9960 | – | – |
| O=C1NCC2(CCCC2)n2c1cc1cnc(Nc3ccc(N4CCC(N5CCCCC5)CC4)cn3)nc12 [HHH] | 6.8 | 419 | 2840 | – | – |
| C[C@H]1CN(c2ccc(Nc3ncc4cc5n(c4n3)C3(CCCCC3)CNC5=O)nc2)CCN1C [R] | 0.5 | 3918 | 1920 | 2776 | 1360 |
| CC(C)(C)CCN1CCN(c2ccc(Nc3ncc4cc5n(c4n3)C3(CCCC3)CNC5=O)nc2)CC1(C)C [CCC] | 2 | 1074 | 2170 | 226 | 457 |
| CCN1[C@H](C)CN(c2ccc(Nc3ncc4cc5n(c4n3)C3(CCCCC3)CNC5=O)nc2)C[C@@H]1C [FF] | 1.2 | 3949 | 4620 | 1197 | 1400 |
| CC(C)N1CCN(c2ccc(Nc3ncc4cc5n(c4n3)C3(CCCCC3)CNC5=O)nc2)C[C@@H]1C [AA] | 0.5 | 13319 | 6100 | 10109 | 4630 |
| O=C1NCC2(CCCC2)n2c1cc1cnc(Nc3ccc(N4CCOCC4)nn3)nc12 [SSS] | 2 | 1112 | 2280 | 917 | 1880 |
| CC(C)N1CCN(Cc2ccc(Nc3ncc4cc5n(c4n3)C3(CCCCC3)CNC5=O)nc2)CC1 [EE] | 3.8 | 432 | 1660 | 289 | 1110 |
| CN(C)C1CCN(c2ccc(Nc3ncc4cc5n(c4n3)C3(CCCCC3)CNC5=O)nn2)CC1 [SS] | 0.8 | 1865 | 1460 | 1775 | 1390 |
| CC1CN(c2ccc(Nc3ncc4cc5n(c4n3)C3(CCCCC3)CNC5=O)nc2)CCN1CC(C)(C)O (centres unmarked) [W] | 2.7 | 1481 | 3970 | 201 | 539 |
| C[C@@H](O)CN1CCN(c2ccc(Nc3ncc4cc5n(c4n3)C3(CCCCC3)CNC5=O)nc2)CC1 [S] | 1.7 | 718 | 1250 | 197 | 342 |
| CN(C)C1CCN(c2ccc(Nc3ncc4cc5n(c4n3)C3(CCCC3)CNC5=O)nn2)CC1 [TTT] | 3.4 | 899 | 3030 | – | – |
| C[C@H]1CN(c2ccc(Nc3ncc4cc5n(c4n3)C3(CCCCC3)CNC5=O)nc2)CCN1CC1CC1 [B] | 0.4 | 6862 | 3040 | 4266 | 1890 |
| C[C@@H]1CN(c2ccc(Nc3ncc4cc5n(c4n3)C3(CCCCC3)CNC5=O)nc2)C[C@H](C)N1 [P] | 3.3 | 1085 | 3560 | 308 | 1010 |
| C[C@@H]1CN(c2ccc(Nc3ncc4cc5n(c4n3)C3(CCCCC3)CNC5=O)nc2)CCN1C[C@@H](C)O [J] | 0.7 | 7707 | 5110 | 6546 | 4340 |
| O=C1NCC2(CCCC2)n2c1cc1cnc(Nc3ccc(C(=O)N4CCN(CC5CC5)CC4)cn3)nc12 [OOO] | 2.4 | 164 | 393 | 85 | 203 |
| CC(C)[C@H]1CNC(=O)c2cc3cnc(Nc4ccc(N5CCNCC5)cn4)nc3n21 [UUU] | 18 | 914 | 16500 | – | – |
| CC1CN(c2ccc(Nc3ncc4cc5n(c4n3)C3(CCCC3)CNC5=O)nc2)CCN1CC1CC1 (centres unmarked) [NNN] | 1.4 | 2154 | 2930 | 743 | 1010 |
| CC1CN(c2ccc(Nc3ncc4cc5n(c4n3)C3(CCCCC3)CNC5=O)nc2)C[C@@H](C)N1CC1CC1 (some centres unmarked) [OO] | 9 | 442 | 3980 | 63 | 570 |

| SMILES | IC50 [1] [nM] | Fold Selectivity (CDK2/CycE/CDK4) [2] | IC50 [2] [nM] | Fold Selectivity (CDK2/CycA/CDK4) [3] | IC50 [3] [nM] |
| --- | --- | --- | --- | --- | --- |
| CN(C)C1CCN(c2ccc(Nc3ncc4cc5n(c4n3)C3(CCCC3)CNC5=O)nc2)CC1 [YY] | 4.6 | 1490 | 6900 | – | – |
| CC(C)N1CCN(c2ccc(Nc3ncc4cc5n(c4n3)C3(CCCCC3)CNC5=O)nn2)CC1 [TT] | 0.8 | 1550 | 1260 | 733 | 596 |
| C[C@H](O)CN1CCN(c2ccc(Nc3ncc4cc5n(c4n3)C3(CCCC3)CNC5=O)nc2)C[C@H]1C [XX] | 1.3 | 5615 | 7300 | 4838 | 6290 |
| C[C@@H](O)CN1CCN(c2ccc(Nc3ncc4cc5n(c4n3)C3(CCCC3)CNC5=O)nc2)C[C@@H]1C [VV] | 3.3 | 809 | 2630 | 243 | 789 |
| CC1CCN(C2CCN(c3ccc(Nc4ncc5cc6n(c5n4)C4(CCCCC4)CNC6=O)nc3)CC2)C1 (centres unmarked) [K] | 1 | 1019 | 1070 | 703 | 738 |
| C[C@@H]1CN(c2ccc(Nc3ncc4cc5n(c4n3)C3(CCCCC3)CNC5=O)nc2)C[C@H](C)N1C[C@@H](C)O [MM] | 1.8 | 1863 | 3390 | 328 | 597 |
| O=C1NCC2(CCCCC2)n2c1cc1cnc(Nc3ccc(N4CCN(C5CCC5)CC4)cn3)nc12 [F] | 1.5 | 419 | 628 | 127 | 190 |
| CCN(CC)C1CCN(c2ccc(Nc3ncc4cc5n(c4n3)C3(CCCC3)CNC5=O)nc2)CC1 [LLL] | 3.2 | 509 | 1620 | 1425 | 4530 |
| CN1CCN(c2ccc(Nc3ncc4cc5n(c4n3)C3(CCCCC3)CNC5=O)nc2)CC1(C)C [D] | 0.9 | 3779 | 3480 | 1629 | 1500 |
| CC(C)C[C@@H]1CNC(=O)c2cc3cnc(Nc4ccc(N5CCNCC5)cn4)nc3n21 [WWW] | 18.5 | 135 | 2500 | – | – |
| O=C1NCC2(CCCC2)n2c1cc1cnc(Nc3ccc(N4CCNCC4)cn3)nc12 [QQQ] | 10.5 | 1057 | 11100 | – | – |
| O=C1NCC2(CCCCC2)n2c1cc1cnc(Nc3ccc(N4CCC(N5CCCCC5)CC4)cn3)nc12 [N] | 1 | 1500 | 1500 | – | – |
| CCN(CC)C1CCN(c2ccc(Nc3ncc4cc5n(c4n3)C3(CCCC3)CNC5=O)nc2)C1 (centres unmarked) [UU] | 7.3 | 542 | 3960 | – | – |
| CCN(CC)C1CCN(C(=O)c2ccc(Nc3ncc4cc5n(c4n3)C3(CCCCC3)CNC5=O)nc2)C1 (centres unmarked) [JJ] | 1.4 | 204 | 288 | – | – |
| CC(C)N1CCN(c2ccc(Nc3ncc4cc5n(c4n3)C3(CCCC3)CNC5=O)nn2)CC1 [RRR] | 2.6 | 1758 | 4500 | – | – |
| CC(C)C[C@@H]1CNC(=O)c2cc3cnc(Nc4ccc(N5CCN(C)CC5)cn4)nc3n21 [XXX] | 11.4 | 581 | 6620 | – | – |
| C[C@@H]1CN(c2ccc(Nc3ncc4cc5n(c4n3)C3(CCCC3)CNC5=O)nc2)C[C@H](C)N1 [DDD] | 9.5 | 986 | 9350 | – | – |
| CC(C)N1CCN(c2ccc(Nc3ncc4cc5n(c4n3)C3(CCCC3)CNC5=O)nc2)CC1 [III] | 6 | 626 | 3770 | – | – |
| CC(C)N1CCN(c2ccc(Nc3ncc4cc5n(c4n3)C3(CCCC3)CNC5=O)nc2)CC1C (centres unmarked) [GGG] | 13.7 | 555 | 7610 | – | – |
| CN(C)C1CCN(c2ccc(Nc3ncc4cc5n(c4n3)C3(CCCCC3)CNC5=O)nc2)CC1 [O] | – | – | – | 1245 | 3150 |
